According to patent US11613531B2, “Inhibitors of RHO associated coiled-coil containing protein kinase” (Kadmon Corporation, LLC, priority 2017, dated 2023):
Values joined by “and” are separate entries in the source; they are usually repeats but may differ in a detail not shown here. Equal entries are not always repeated. Where two headings read alike, the source gives them in different places.

Legend:
[1] = test system: ppMlc (T18/S19) levels in A7R5 cells; test: A7R5 in-cell ELISA (pMLC); assay type: cell-based, Rat; conditions: for inhibition at 10 µM / pMLC % inh A7R5 @ [conc]: 10 μM compound
How it was run: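 A7R5 rat aortic smooth muscle cells seeded 24 h, then treated 90 min with a 9-point 2-fold compound dilution series. Fixed cells probed for ppMlc (T18/S19) by colorimetric in-cell ELISA; cellular IC50 from nonlinear regression curve fit.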

[2] = target: Recombinant ROCK2 (amino acids 1-552) (Homo sapiens (Human), UniProt O75116); test: Z′-Lyte kinase assay, ROCK2; assay type: biochemical; conditions: for inhibition at 1 µM: 1 μM compound, read-out: ROCK2 % inh. @ [conc]
Chain of Recombinant ROCK2 (amino acids 1-552) (O75116 1-552): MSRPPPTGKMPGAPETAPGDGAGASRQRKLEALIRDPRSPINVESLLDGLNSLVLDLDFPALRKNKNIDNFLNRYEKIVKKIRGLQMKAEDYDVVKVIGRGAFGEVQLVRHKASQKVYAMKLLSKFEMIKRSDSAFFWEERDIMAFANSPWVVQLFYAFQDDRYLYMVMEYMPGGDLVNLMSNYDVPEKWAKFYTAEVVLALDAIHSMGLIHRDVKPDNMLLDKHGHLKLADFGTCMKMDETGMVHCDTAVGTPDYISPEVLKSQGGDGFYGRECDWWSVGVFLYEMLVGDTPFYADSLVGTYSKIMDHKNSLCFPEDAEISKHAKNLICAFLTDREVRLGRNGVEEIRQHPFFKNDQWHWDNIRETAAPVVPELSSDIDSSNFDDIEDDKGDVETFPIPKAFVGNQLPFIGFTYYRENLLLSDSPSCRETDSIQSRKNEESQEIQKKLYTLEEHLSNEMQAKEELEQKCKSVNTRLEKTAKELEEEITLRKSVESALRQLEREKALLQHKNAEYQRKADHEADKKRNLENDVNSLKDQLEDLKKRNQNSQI
How it was run: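 Recombinant human ROCK1 (aa 1-535) or ROCK2 (aa 1-552) activity read by Z′-Lyte kinase assay. Percent inhibition at 1 μM compound was normalized to DMSO control; IC50 from 9-point 2-fold serial dilutions by nonlinear regression.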

[3] = Rattus norvegicus, A7R5, A7R5 cells, read-out: pMLC % inh A7R5 @ [conc]
[4] = Rattus norvegicus, A7R5, A7R5 cells, ppMlc (T18/S19)
[5] = Rattus norvegicus, A7R5, A7R5 cells

Row | IC50 [2] | SMILES | inhibition at 10 µM [1, 3] | other results
1 | 747 nM | COc1cccc(CN(C)C2CCCN(c3nccc(Nc4ccc5[nH]ncc5c4)n3)C2)c1 (stereo not drawn) [Example 242, N-(2-(3-((3-methoxybenzyl)(methyl)amino)piperidin-1-yl)pyrimidin-4-yl)-1H-indazol-5-amine] | 41.2% | 
2 | 1230 nM | N[C@H]1CCN(c2nccc(Nc3ccc(-c4cn[nH]c4)cc3)n2)C1 [Example 254, (S)—N-(4-(1H-pyrazol-4-yl)phenyl)-2-(3-aminopyrrolidin-1-yl)pyrimidin-4-amine] | 16.2% | 
3 | 1650 nM | COc1cccc(C2CCN(c3nccc(Nc4ccc(-c5cn[nH]c5)cc4)n3)C2)c1 (stereo not drawn) [Example 269, N-(4-(1H-pyrazol-4-yl)phenyl)-2-(3-(3-methoxyphenyl)pyrrolidin-1-yl)pyrimidin-4-amine] |  | pMLC % inh A7R5 @ [conc] ([1]; A7R5 cells): −5.7% and −7.2%
4 | 1430 nM | c1ccc(C2CCN(c3nccc(Nc4ccc(-c5cn[nH]c5)cc4)n3)C2)cc1 (stereo not drawn) [Example 270, N-(4-(1H-pyrazol-4-yl)phenyl)-2-(3-phenylpyrrolidin-1-yl)pyrimidin-4-amine] |  | pMLC % inh A7R5 @ [conc] ([1]; A7R5 cells): −6.9% and −8.9%
5 | > 10000 nM | c1cc(Nc2ccnc(N3CCNCC3)n2)cc(-c2cn[nH]c2)c1 [Example 347, N-(3-(1H-pyrazol-4-yl)phenyl)-2-(piperazin-1-yl)pyrimidin-4-amine] | 17% | 
6 | > 10000 nM | c1cc(Nc2ccc(-c3cnc[nH]3)cc2)nc(N2CCNCC2)n1 [Example 351, N-(4-(1H-imidazol-5-yl)phenyl)-2-(piperazin-1-yl)pyrimidin-4-amine] | 7.8% | 
7 | > 10000 nM | c1cc(Nc2ccc(-c3cncs3)cc2)nc(N2CCNCC2)n1 [Example 353, 2-(piperazin-1-yl)-N-(4-(thiazol-5-yl)phenyl)pyrimidin-4-amine] |  | pMLC % inh A7R5 @ [conc] ([1]; A7R5 cells): 25.55%
8 | > 10000 nM | c1cc(Nc2ccc(-c3nnc[nH]3)cc2)nc(N2CCNCC2)n1 [Example 354, N-(4-(4H-1,2,4-triazol-3-yl)phenyl)-2-(piperazin-1-yl)pyrimidin-4-amine] | 6.4% | 
9 | > 10000 nM | Nc1nc(-c2ccc(Nc3ccnc(N4CCNCC4)n3)cc2)cs1 [Example 355, 4-(4-((2-(piperazin-1-yl)pyrimidin-4-yl)amino)phenyl)thiazol-2-amine] | 21.9% | 
10 | > 10000 nM | Nc1nnc(-c2ccc(Nc3ccnc(N4CCNCC4)n3)cc2)s1 [Example 356, 5-(4-((2-(piperazin-1-yl)pyrimidin-4-yl)amino)phenyl)-1,3,4-thiadiazol-2-amine] | 6.59% | 
11 | 1900 nM | O=c1ccc(-c2ccc(Nc3ccnc(N4CCNCC4)n3)cc2)n[nH]1 [Example 357, 6-(4-((2-(piperazin-1-yl)pyrimidin-4-yl)amino)phenyl)pyridazin-3 (2H)-one] | 6.35% | 
12 | > 10000 nM | Nc1cc(-c2ccc(Nc3ccnc(N4CCNCC4)n3)cc2)ccn1 [Example 359, N-(4-(2-aminopyridin-4-yl)phenyl)-2-(piperazin-1-yl)pyrimidin-4-amine] | 21.8% | 
13 | 5200 nM | O=c1cc(-c2ccc(Nc3ccnc(N4CCNCC4)n3)cc2)cc[nH]1 [Example 360, 4-(4-((2-(piperazin-1-yl)pyrimidin-4-yl)amino)phenyl)pyridin-2(1H)-one] | 1.69% | 

Continued, compound first:

Row | SMILES | IC50 [2] | inhibition at 10 µM [1, 3] | other results
14 | CCC1CNCCCN1c1nccc(Nc2ccc3[nH]ncc3c2)n1 (stereo not drawn) [Example 241, N-(2-(2-ethyl-1,4-diazepan-1-yl)pyrimidin-4-yl)-1H-indazol-5-amine] |  | 81% | IC50 [1, 4]: 954 nM; inhibition at 1 µM [2]: 85.2%
15 | COc1ccccc1NC1CCCN(c2nccc(Nc3ccc4[nH]ncc4c3)n2)C1 (stereo not drawn) [Example 244, N-(2-(3-((2-methoxyphenyl)amino)piperidin-1-yl)pyrimidin-4-yl)-1H-indazol-5-amine] | > 10000 nM | 0.8% | 
16 | COc1ccc(N[C@@H]2CCN(c3nccc(Nc4ccc5[nH]ncc5c4)n3)C2)cc1 [Example 246, (R)—N-(2-(3-((4-methoxyphenyl)amino)pyrrolidin-1-yl)pyrimidin-4-yl)-1H-indazol-5-amine] |  | 1.8% | ROCK2 % inh. @ [conc] ([2]; concentration not given): 0%
17 | OC1CC2CCC(C1)N2c1nccc(Nc2ccc(-c3cn[nH]c3)cc2)n1 (stereo not drawn) [Example 259, 8-(4-((4-(1H-pyrazol-4-yl)phenyl)amino)pyrimidin-2-yl)-8-azabicyclo[3.2.1]octan-3-ol] | > 10000 nM |  | inhibition at 10 µM ([1]; Rattus norvegicus, A7R5 cells, read-out: pMLC % inh A7R5 @ [conc]): 6.48%
18 | Cc1cnc(N2CCCNCC2)nc1Nc1ccc(-c2cn[nH]c2)cc1 [Example 261, N-(4-(1H-pyrazol-4-yl)phenyl)-2-(1,4-diazepan-1-yl)-5-methylpyrimidin-4-amine] |  | 86% | IC50 [1, 4]: 1880 nM; inhibition at 1 µM [2]: 74%
19 | c1cc(-c2cn[nH]c2)ccc1Nc1nc(N2CCCNCC2)nc2c1CSC2 [Example 263, N-(4-(1H-pyrazol-4-yl)phenyl)-2-(1,4-diazepan-1-yl)-5,7-dihydrothieno[3,4-d]pyrimidin-4-amine] |  | 82% | IC50 [1, 4]: 1390 nM; inhibition at 1 µM [2]: 101%
20 | c1cc2nc(N3CCCNCC3)nc(Nc3ccc(-c4cn[nH]c4)cc3)c2s1 [Example 264, N-(4-(1H-pyrazol-4-yl)phenyl)-2-(1,4-diazepan-1-yl)thieno[3,2-d]pyrimidin-4-amine] |  | 60.2% | IC50 [1, 4]: 514 nM; inhibition at 1 µM [2]: 92.8%; IC50 ([2]; 9 points 2-fold serial dilution): 30 nM
21 | Cc1cc(Nc2ccc(-c3cn[nH]c3)cc2)nc(N2CCCNCC2)n1 [Example 265, N-(4-(1H-pyrazol-4-yl)phenyl)-2-(1,4-diazepan-1-yl)-6-methylpyrimidin-4-amine] |  | 80% | IC50 [1, 4]: 1370 nM; inhibition at 1 µM [2]: 71.2%
22 | COc1cnc(N2CCCNCC2)nc1Nc1ccc(-c2cn[nH]c2)cc1 [Example 267, N-(4-(1H-pyrazol-4-yl)phenyl)-2-(1,4-diazepan-1-yl)-5-methoxypyrimidin-4-amine] |  | 70% | inhibition at 1 µM [2]: 52.3%
23 | Clc1cnc(N2CC3CC(C2)N3)nc1Nc1ccc2[nH]ncc2c1 [Example 280, N-(2-(3,6-diazabicyclo[3.1.1]heptan-3-yl)-5-chloropyrimidin-4-yl)-1H-indazol-5-amine] | 263 nM |  | inhibition at 1 µM ([1]; Rattus norvegicus, A7R5, A7R5 cells, 1 μM compound, read-out: pMLC % inh A7R5 @ [conc]): 26.6%
24 | CN1CCc2nc(N3C4CCC3CNC4)nc(Nc3ccc(-c4cn[nH]c4)cc3)c2C1 [Example 303, N-(4-(1H-pyrazol-4-yl)phenyl)-2-(3,8-diazabicyclo[3.2.1]octan-8-yl)-6-methyl-5,6,7,8-tetrahydropyrido[4,3-d]pyrimidin-4-amine] | 257 nM |  | IC50 [1, 5]: > 10000 nM
25 | c1cc(-c2ccc(Nc3nc(N4C5CCC4CNC5)nc4c3CNC4)cc2)ccn1 [Example 306, 2-(3,8-diazabicyclo[3.2.1]octan-8-yl)-N-(4-(pyridin-4-yl)phenyl)-6,7-dihydro-5H-pyrrolo[3,4-d]pyrimidin-4-amine] | > 1000 nM |  | IC50 [1, 5]: > 10000 nM
26 | Nc1ccc(-c2ccc(Nc3ccnc(N4CCNCC4)n3)cc2)cn1 [Example 350, N-(4-(6-aminopyridin-3-yl)phenyl)-2-(piperazin-1-yl)pyrimidin-4-amine] | 3700 nM | 14.8% | 
27 | c1cc(Nc2ccc(-c3cnco3)cc2)nc(N2CCNCC2)n1 [Example 358, N-(4-(oxazol-5-yl)phenyl)-2-(piperazin-1-yl)pyrimidin-4-amine] | > 10000 nM | 24.3% | 
